According to the supplement of paper PMC5908809:

Columns and labels:
[1] = tested on: normal NK cells expanded with K562-aAPC; assay: percent inhibition of viability; higher = more inhibition; settings: 72 h, IL-2 2.5 ng/mL
Method: (§1)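 Drug sensitivity and resistance testing on K562-aAPC-expanded normal NK cells: 5 concentrations (10-fold steps over a 10,000-fold range), 72 h at 37 °C, viability by CellTiter-Glo normalised to DMSO and benzethonium chloride controls; DSS from the fitted curve.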

[2] = tested on: KAI3 (IL-2 2.5 ng/mL); assay: drug sensitivity score (DSS) (DSS units); higher = more sensitive; extreme values may be limits of the assay; settings: 72 h
[3] = tested on: normal primary NK cells, pool 3 (3 donors) (IL-2 2.5 ng/mL); assay: as above; settings: 72 h
[4] = tested on: KHYG-1 (IL-2 2.5 ng/mL); assay: as above; settings: 72 h
[5] = tested on: normal primary NK cells, pool 2 (3 donors) (IL-2 2.5 ng/mL); assay: as above; settings: 72 h
[6] = tested on: NKL (IL-2 2.5 ng/mL); assay: as above; settings: 72 h
[7] = tested on: NK-92 (IL-2 2.5 ng/mL); assay: as above; settings: 72 h
[8] = tested on: IMC-1 (IL-2 20 ng/mL); assay: as above; settings: 72 h
[9] = tested on: normal primary NK cells, pool 1 (3 donors) (IL-2 2.5 ng/mL); assay: as above; settings: 72 h
[10] = tested on: YT (IL-2 2.5 ng/mL); assay: as above; settings: 72 h
[11] = tested on: SNK-6 (IL-2 2.5 ng/mL); assay: as above; settings: 72 h
[12] = tested on: DERL-7 (IL-2 2.5 ng/mL); assay: as above; settings: 72 h
[13] = tested on: NK-YS (IL-2 2.5 ng/mL); assay: as above; settings: 72 h
[14] = tested on: normal primary NK cells, pool 1 (3 donors), resting (IL-2 0 ng/mL); assay: as above; settings: 72 h
[15] = tested on: KAI3 (IL-2 2.5 ng/mL); assay: percent inhibition of viability; higher = more inhibition; settings: 72 h
[16] = tested on: normal primary NK cells, pool 3 (3 donors) (IL-2 2.5 ng/mL); assay: as above; settings: 72 h
[17] = tested on: KHYG-1 (IL-2 2.5 ng/mL); assay: as above; settings: 72 h
[18] = tested on: normal primary NK cells, pool 2 (3 donors) (IL-2 2.5 ng/mL); assay: as above; settings: 72 h
[19] = tested on: NKL (IL-2 2.5 ng/mL); assay: as above; settings: 72 h
[20] = tested on: NK-92 (IL-2 2.5 ng/mL); assay: as above; settings: 72 h
[21] = tested on: IMC-1 (IL-2 20 ng/mL); assay: as above; settings: 72 h
[22] = tested on: normal primary NK cells, pool 1 (3 donors) (IL-2 2.5 ng/mL); assay: as above; settings: 72 h
[23] = tested on: YT (IL-2 2.5 ng/mL); assay: as above; settings: 72 h
[24] = tested on: SNK-6 (IL-2 2.5 ng/mL); assay: as above; settings: 72 h
[25] = tested on: DERL-7 (IL-2 2.5 ng/mL); assay: as above; settings: 72 h
[26] = tested on: NK-YS (IL-2 2.5 ng/mL); assay: as above; settings: 72 h
[27] = tested on: normal primary NK cells, pool 1 (3 donors), resting (IL-2 0 ng/mL); assay: as above; settings: 72 h
[28] = tested on: normal NK cells expanded with K562-aAPC; assay: drug sensitivity score (DSS) (DSS units); higher = more sensitive; extreme values may be limits of the assay; settings: 72 h; IL-2 2.5 ng/mL
Method: as §1

Cn1ncnc1[C@H]1c2n[nH]c(=O)c3cc(F)cc(c23)N[C@@H]1c1ccc(F)cc1 [Talazoparib] (max concentration tested 1000 nM)
percent inhibition of viability [%]
Settings | 0.1 nM | 1 nM | 10 nM | 100 nM | 1000 nM
[1] | 2.07 | 3.56 | 9.75 | 17.4 | 45.1
[15] | 3.2 | 10.3 | 25.1 | 48.3 | 74.7
[16] | -7.78 | -0.35 | 2.46 | 5.72 | 21.3
[17] | 0.2 | -0.57 | 14.9 | 31.4 | 71.2
[18] | -10.4 | 6.14 | 1.12 | 1.32 | 21.5
[19] | -2.21 | 28.1 | 72 | 84.1 | 88.6
[20] | 15.4 | 8.78 | 27.8 | 36.7 | 87.8
[21] | -4.58 | -1.47 | 11.2 | 18.6 | 78.1
[22] | 7.55 | -5.65 | 4.49 | -2.17 | -1.39
[23] | -2.25 | 0.5 | 0.86 | -5.82 | -1.36
[24] | 1.83 | 6.37 | 16.4 | 33.1 | 90.8
[25] | 4.61 | 7.22 | 13.7 | 21.3 | 37.8
[26] | -2.27 | -0.36 | 27.9 | 81.3 | 96.2
[27] | 10.7 | -5.43 | -1.52 | -18.5 | 4.03

Settings | drug sensitivity score
[2] | 12.7
[3] | 1.31
[4] | 7.93
[5] | 0.86
[6] | 27.7
[7] | 12
[8] | 7.06
[9] | 0
[10] | 0
[11] | 8.8
[12] | 5.22
[13] | 18.4
[14] | 0
[28] | 4.21
